Data published in patent US20260232876A1, “POROUS METAL STRUCTURES INCORPORATING NANOPARTICLES” (Yissum Research Development Company of the Hebrew …, priority 2023, published 2026).

Test: Thymol retention on porous titanium in open air, remaining thymol by HPLC
Format: physicochemical
Settings: 360 h

Cc1ccc(C(C)C)c(O)c1 [free thymol, thymol]
amount of thymol remaining in the samples: almost no thymol left
